Laboratory results: patent US11260127B2, “Mesoporous silica nanoparticles for diagnostic and therapeutic applications” (CASE WESTERN RESERVE UNIVERSITY, priority 2017, dated 2022)

Test: In vitro RF-triggered drug release from Fe@MSN nanoparticles
Assay type: physicochemical
Conditions: for drug release rate of two drugs compared: release from Fe@MSN under the same RF field
Method: FIGS. 2(A-E) illustrate in vitro evaluation of radiofrequency (RF)-triggered drug release from Fe@MSN nanoparticles. (A) The release of DOX was triggered from Fe@MSN particles using an RF field at different frequencies (1, 20, 50 and 380 kHz; n=4). […] (C) Effect of elevated temperature on the drug release from Fe@MSN particles with an incubation time of 60 min (n=4; unpaired t-test P<0.0001). (D) Drug release from Fe@MSN at different particle concentration under an RF field at 50 kHz. (E) Drug release from Fe@MSN particles at different depths in the RF source (RF field: 50 kHz).
Further, when the temperature of the Fe@MSN suspension was elevated to 60° C. for 60 min by external heating, negligible drug was released ([…]). These two findings indicate that the triggered release mechanism is not based on hyperthermic effects applications, thereby minimizing the role of Neel relaxation phenomenon in RF-triggered drug release from the Fe@MSN nanoparticles.
Similar drug release rate per nanochain particle was observed from suspensions of dramatically different concentrations of Fe@MSN nanoparticles when subjected to the same RF field.
The RF-triggered drug release is nearly independent of the type of drug molecules.

RF-triggered drug release rate (RF field, very low Fe@MSN concentration, 1 or 10 kHz) | Structure (SMILES) | drug release rate of two drugs compared
– | CC(=N)NCc1cccc(CN)c1 [1400 W] | almost identical
triggered in a controlled manner | COc1cccc2c1C(=O)c1c(O)c3c(c(O)c1C2=O)C[C@@](O)(C(=O)CO)C[C@@H]3O[C@H]1C[C@H](N)[C@H](O)[C@H](C)O1 [DOX, doxorubicin] | almost identical
